Experimental data: patent publication US11730712B2, “Functionalized long-chain hydrocarbon mono- and di-carboxylic acids and derivatives thereof, and their use for the prevention or treatment of disease” (ESPERVITA THERAPEUTICS, INC., priority 2021, dated 2023)
Where “and” joins values, the source holds several entries; their conditions need not be identical. Equal entries are not always repeated.

Assays:
Human ACC2 = target: T1, Human ACC2 (Homo sapiens, UniProt O00763); experiment: ACC2 enzymatic assay (ADP-Glo); format: biochemical; conditions: recombinant human ACC2 1 nM, 10 μM ATP, 10 μM acetyl CoA; Run 1-3; read-out: Compound IC50 (M) ACC2
T1 construct: FLAG (C); His (C); purchased BPS Biosciences 50201; host or cells: Baculovirus infected Sf9 cells
T1 sequence (O00763 whole entry): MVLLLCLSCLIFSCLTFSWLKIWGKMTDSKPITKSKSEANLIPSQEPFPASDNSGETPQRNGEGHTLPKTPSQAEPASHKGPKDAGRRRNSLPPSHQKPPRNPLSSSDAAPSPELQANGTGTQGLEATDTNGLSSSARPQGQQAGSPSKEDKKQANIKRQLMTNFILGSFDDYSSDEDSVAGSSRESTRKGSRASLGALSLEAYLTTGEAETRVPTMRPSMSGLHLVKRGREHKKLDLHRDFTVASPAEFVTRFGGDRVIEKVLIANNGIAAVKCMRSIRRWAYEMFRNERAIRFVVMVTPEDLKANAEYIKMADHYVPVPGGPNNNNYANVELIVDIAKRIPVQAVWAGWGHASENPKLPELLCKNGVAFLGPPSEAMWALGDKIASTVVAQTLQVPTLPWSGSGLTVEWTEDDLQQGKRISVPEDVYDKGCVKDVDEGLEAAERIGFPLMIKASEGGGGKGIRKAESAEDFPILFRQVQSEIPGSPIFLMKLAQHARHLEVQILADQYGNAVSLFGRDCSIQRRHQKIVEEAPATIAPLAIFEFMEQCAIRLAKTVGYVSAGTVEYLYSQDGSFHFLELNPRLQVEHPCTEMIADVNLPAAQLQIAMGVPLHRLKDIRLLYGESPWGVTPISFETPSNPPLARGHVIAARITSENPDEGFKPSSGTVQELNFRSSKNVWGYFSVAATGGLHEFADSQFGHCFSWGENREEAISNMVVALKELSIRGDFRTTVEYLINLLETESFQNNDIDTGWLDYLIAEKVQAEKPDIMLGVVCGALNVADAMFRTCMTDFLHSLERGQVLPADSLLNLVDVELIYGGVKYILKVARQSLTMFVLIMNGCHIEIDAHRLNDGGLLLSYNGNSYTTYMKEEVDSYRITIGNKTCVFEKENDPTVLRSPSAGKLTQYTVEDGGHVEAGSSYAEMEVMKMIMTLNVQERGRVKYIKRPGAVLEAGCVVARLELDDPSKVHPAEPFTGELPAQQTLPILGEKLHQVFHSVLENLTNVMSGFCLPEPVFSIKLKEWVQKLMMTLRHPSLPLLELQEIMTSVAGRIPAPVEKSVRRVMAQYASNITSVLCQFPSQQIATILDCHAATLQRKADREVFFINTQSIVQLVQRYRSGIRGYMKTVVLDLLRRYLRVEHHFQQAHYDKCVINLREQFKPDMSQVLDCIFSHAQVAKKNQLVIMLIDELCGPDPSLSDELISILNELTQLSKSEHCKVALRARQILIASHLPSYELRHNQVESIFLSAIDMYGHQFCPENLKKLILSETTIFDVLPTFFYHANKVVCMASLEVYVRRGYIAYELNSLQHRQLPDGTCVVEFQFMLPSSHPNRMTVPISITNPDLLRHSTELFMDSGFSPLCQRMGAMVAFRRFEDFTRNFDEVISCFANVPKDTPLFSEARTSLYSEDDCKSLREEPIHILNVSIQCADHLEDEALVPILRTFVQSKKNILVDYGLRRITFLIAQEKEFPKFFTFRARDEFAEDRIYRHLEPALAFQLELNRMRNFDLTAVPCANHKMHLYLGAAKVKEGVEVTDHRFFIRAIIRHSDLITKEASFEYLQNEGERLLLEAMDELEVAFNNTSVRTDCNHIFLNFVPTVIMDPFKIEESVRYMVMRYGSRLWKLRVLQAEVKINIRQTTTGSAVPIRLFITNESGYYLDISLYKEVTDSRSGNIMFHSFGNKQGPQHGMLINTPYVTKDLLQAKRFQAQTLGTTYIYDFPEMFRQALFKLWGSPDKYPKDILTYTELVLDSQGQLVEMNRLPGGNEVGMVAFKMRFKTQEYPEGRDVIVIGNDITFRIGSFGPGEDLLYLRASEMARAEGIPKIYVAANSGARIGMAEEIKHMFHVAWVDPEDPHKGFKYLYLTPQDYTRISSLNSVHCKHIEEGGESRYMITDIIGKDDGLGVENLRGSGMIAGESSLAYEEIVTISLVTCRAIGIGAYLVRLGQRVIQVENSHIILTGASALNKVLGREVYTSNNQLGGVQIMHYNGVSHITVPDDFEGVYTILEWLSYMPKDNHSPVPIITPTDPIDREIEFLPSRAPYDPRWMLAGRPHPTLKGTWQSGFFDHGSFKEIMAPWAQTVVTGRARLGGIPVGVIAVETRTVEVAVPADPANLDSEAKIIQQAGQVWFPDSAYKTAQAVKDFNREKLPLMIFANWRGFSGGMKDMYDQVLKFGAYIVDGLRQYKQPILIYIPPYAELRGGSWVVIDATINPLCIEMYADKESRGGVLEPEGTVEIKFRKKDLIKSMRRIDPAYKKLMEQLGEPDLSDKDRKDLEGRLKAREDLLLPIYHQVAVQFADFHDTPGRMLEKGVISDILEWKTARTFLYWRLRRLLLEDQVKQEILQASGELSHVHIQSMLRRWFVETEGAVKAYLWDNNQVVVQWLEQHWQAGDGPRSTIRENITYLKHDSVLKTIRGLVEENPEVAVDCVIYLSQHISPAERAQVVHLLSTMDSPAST
Protocol: Human ACC1 (Cat#50202 Lot #120830) and ACC2 (Cat #50201 Lot #160217) were obtained from BPS Biosciences, San Diego, Calif. 92121. Human ACC1 had C-terminal flag and His-tags with a MW of 270 KDa after purification from Baculovirus infected Sf9 cell expression system and came as a solution in 50 mM Tris-HCl, pH 8.0, 500 mM NaCl, 10% glycerol, 1 mM DTT, 100 μg/ml FLAG peptide with 70% purity. The stock concentration was 0.25 mg/ml corresponding to 0.926 μM. Human ACC2 was also purified from Baculovirus infected Sf9 expression system. […] The stock concentration was 0.1 mg/ml corresponding to 0.36 μM. The assay buffer for measuring the activity of ACC contained: 30 mM HEPES (pH 7.4), 2 mM MgCl2, 0.01% Brij35, 2 mM DTT, 1% DMSO (solvent for compound). For ACC1 and ACC2 assays, the following concentrations of substrate and cofactors were used: 12 mM NaHCO3, 10 μM acetyl CoA, 10 μM ATP, and 2 mM K-citrate. The recombinant human enzyme was used at 5 nM for ACC1 and 1 nM for ACC2. In brief, enzyme alone in the above buffer without substrate was used for background. All test materials were dissolved in 100% DMSO using acoustic technology (Echo550). The prepared solution was preincubated for 15 min followed by the addition of 5 μL/well of ADP standard. ATP was then added to start the reaction. The assay contents were spun and briefly shaken followed by incubation at room temperature for 1 h. At the end of completion of assay, 5 μL of ADP-Glo was added to each well to stop the reaction. The contents were mixed, spun and incubated at room temperature for 40 min followed by the addition of 10 μL/well of ADP detection reagent. The contents were spun, mixed and covered with plastic to measure luminescence. […] The light generated, measured in a luminometer, correlates to the amount of ADP generated in the ACC assay, which is indicative of ACC activity.
The enzyme concentrations for ACC1 and ACC2 were 5 nM and 1 nM, respectively.
Data represent nM or μM ADP produced, % Activity (relative to no inhibitor controls), and curve fits were performed by GraphPad Prism software. […]

Hep3B cells = experiment: Drug interaction (combination) in Hep3B cell proliferation; format: cell-based
Protocol: FIGS. 41A-41B show drug interaction effect of Compound I-32 (FIG. 41A) and Compound I-1 (FIG. 41B) in combination with regorafenib in Hep3B cell proliferation. In FIG. 41A, “1+0.015 (μM)” means 1 μM Compound I-32+0.015 μM regorafenib, etc. In FIG. 41B, “1+0.015 (μM)” means 1 μM Compound I-1+0.015 μM regorafenib, etc.
In FIG. 44A, “1+0.03 (μM)” means 1 μM Compound I-1+0.03 μM sorafenib, etc. […] In FIG. 44B, “1+0.005 (μM)” means 1 μM Compound I-1+0.005 μM lenvatinib, etc. […] In FIG. 44C, “1+0.03 (μM)” means 1 μM Compound I-32+0.03 μM sorafenib, etc. […] In FIG. 44D, “1+0.005 (μM)” means 1 μM Compound I-32+0.005 μM lenvatinib, etc.

[1] = system: mouse primary hepatocytes; experiment: 14C-acetate incorporation into total lipids in primary mouse hepatocytes; format: cell-based; conditions: Hepatocyte, 4-hour period, read-out: IC50 in μM, inhibition of 14C-acetate incorporation in total lipids
Protocol: After perfusion, collagen digested liver cells were re-suspended in William's E media (11 mM glucose) (Gibco) supplemented with 10% fetal bovine serum (FBS) (Gibco), 2 mM L-glutamine (Gibco) and 1% Antibiotic-Antimycotic (Gibco) mixture and seeded in white opaque 96-well plates. On the following day, the cells were serum-starved for 2 hours, then treated with 0 μM, 0.1 μM, 0.3 μM, 0.5 μM, 1 μM, 3 μM, 10 μM, and 100 μM of Compound I-32, Compound I-1, or Compound III-1 or Reference Compound (e.g., Compounds A-E and bempedoic acid) in the presence of ^14C-Acetate (1 μCi/ml, PerkinElmer). Each of Compound I-32, Compound I-1, Compound III-1, and Reference Compound was solubilized in 100% DMSO to a final concentration of 100 mM stock solution. In the experimental condition, the stock solution was diluted in serum free media (William's E media (11 mM glucose) (Gibco), 2 mM L-glutamine (Gibco) and 1% Anti biotic-Antimycotic) to yield the desired concentration of each compound. […] After 4 hours of treatment, the plates were washed two times with PBS (×1) and 100 μL microscint fluid (Microscint O, part #601361) was added in each well. Plates were wrapped with aluminum foil and were shaken at 250 rpm for 2 h. After 2 h of shaking, ^14C incorporation into lipid was determined by liquid scintillation counting using a TopCount NXT Microplate Scintillation and Luminescence Counter (Perkin Elmer).
The effects of Compound I-32. Compound I-1, and Compound III-1 on mouse primary hepatocyte lipogenesis are represented in Table 1. Each Compound was assayed at a concentration of 0 μM (vehicle control), 0.1 μM, 0.3 μM, 0.5 μM, 1 μM, 3 μM, 10 μM, and 100 μM, unless otherwise noted. Statistically significant inhibition was determined by one-way ANOVA and Dennett's post hoc test where appropriate. […] IC50 values were determined by nonlinear regression. All statistical analyses were carried out using GraphPad Prism 8 software. A p-value of less than or equal 0.05 was considered significant.

| Compound | IC50 (Human ACC2) | drug interaction effect in combination with lenvatinib (Hep3B cells; at various concentrations) | drug interaction effect in combination with sorafenib (Hep3B cells; at various concentrations) | IC50 [1] [µM] | drug interaction effect in combination with sorafenib (Hep3B cells; at all tested concentrations) |
| --- | --- | --- | --- | --- | --- |
| CC(C)(CCCCc1cccc(CCCCC(C)(C)C(=O)SCCNC(=O)CCNC(=O)[C@H](O)C(C)(C)COP(=O)(O)OP(=O)(O)OC[C@H]2O[C@@H](n3cnc4c(N)ncnc43)[C@H](O)[C@@H]2OP(=O)(O)O)c1)C(=O)O [Compound I-32-CoA, 6-[3-(5-Carboxy-5-methylhexyl)-phenyl]-2,2-dimethylhexanoic acid Coenzyme A Ester] | 5.02e-06 M and 4.22e-06 M and 3.33e-06 M | – | – | – | – |
| CC(C)(CCCCc1ccc(CCCCC(C)(C)C(=O)SCCNC(=O)CCNC(=O)[C@H](O)C(C)(C)COP(=O)(O)OP(=O)(O)OC[C@H]2O[C@@H](n3cnc4c(N)ncnc43)[C@H](O)[C@@H]2OP(=O)(O)O)cc1)C(=O)O [Compound I-1-CoA, 6-[4-(5-carboxy-5-methylhexyl)-phenyl]-2,2-dimethylhexanoic acid Coenzyme A ester] | 9.41e-06 M and 7.72e-06 M and 9.06e-06 M | – | – | – | – |
| CC(C)(CCCCc1ccc(CCCCC(C)(C)C(=O)O)cc1)C(=O)O [Compound I-1, 6-[4-(5-carboxy-5-methylhexyl)-phenyl]-2,2-dimethylhexanoic acid] | – | synergism | synergism | 0.46 | – |
| CC(C)(CCCCc1cccc(CCCCC(C)(C)C(=O)O)c1)C(=O)O [Compound I-32, 6-[3-(5-carboxy-5-methylhexyl)-phenyl]-2,2-dimethylhexanoic acid] | – | synergism | – | 0.34 | synergism |
